The values that follow come from patent publication US6887691B2, “DNA coding for protein which confers on bacterium Escherichia coli resistance to L-homoserine, and method for producing L-amino acids” (priority 1998, dated 2005).

What all share (test): MIC of amino acids and amino acid analogues on M9 agar test plates
Holding throughout (assay type): cell-based

The subject of assay [1] is E. coli strain N99 rhtB::cat. The conditions noted are these: Escherichia coli. As to the method: To inactivate the chromosomal rhtB gene the plasmid pNPZ46 was constructed (FIG. 1) on the basis of pUK21 vector. It harbors a DNA fragment from 86 min of E. coli chromosome, with the rhtB gene and 5′-flanking and 3′-flanking regions thereof. Then the ClaI-Eco47III fragment of the pNPZ46 plasmid rhtB gene was substituted for AsuII-BsrBI fragment containing cat (Cm^R) gene of pACYC184 plasmid (Chang and Cohen, J. Bacteriol., 134, 1141-1156, 1978) giving the pNPZ47 plasmid (FIG. 1). To introduce the obtained insertionally inactivated rhtB gene into the chromosome of the E. coli strain N99 (the streptomycin-resistant derivative of the known strain W3350 (Campbell, Virology, 14, 22-33, 1961)), the method of Parker and Marinus was used (Parker, B. and Marinus, M. G., Gene, 73, 531-535, 1988).
(§1) Then the susceptibility of the thus obtained E. coli strain N99 rhtB::cat, of the initial strain N99 (rhtB^+) and of its derivative transformed with pRhtB plasmid, N99/pRhtB, to some amino acids and amino acid analogues was tested. overnight cultures of the strains grown in M9 minimal medium at 37° C. with a rotary shaker (10^9 cfu/ml) were diluted 1:100 and grown for 5 hours under the same conditions. Then the log phase cultures thus obtained were diluted and about 10^4 of alive cells were applied to well-dried test plates with M9 agar containing doubling increments of amino acids or analogues. The minimum inhibitory concentration (MIC) of these compounds were examined after 40-46 h cultivation.

The test system of the next assay is E. coli strain N99/pRhtB. The conditions noted are these: Escherichia coli. The protocol: as §1
In assay [2] the test system is E. coli strain N99 (rhtB+). The conditions noted are these: Escherichia coli, initial strain, doubling increments, examined after 40-46 h cultivation. As to the method: as §1

As a reminder, the MIC is the lowest concentration that inhibits growth of the organism. `CN(C)CC(N)C(=O)O` (racemic) [4-aza-DL-leucine, reference compound]: the figures for the MIC (in assay [1]; with E. coli strain N99/pRhtB; in assay [2]) were 40 µg/mL, 100 µg/mL and 40 µg/mL, respectively.
Consider `NCCSC[C@H](N)C(=O)O` [AEC, S-(2-aminoethyl)-L-cysteine, reference compound], for which the MIC was 10 µg/mL in assay [1], 25 µg/mL in the assay on E. coli strain N99/pRhtB and 10 µg/mL in assay [2].
Consider `CCCC(N)(O)C(=O)O` (stereo not drawn) [AHVA, α-amino-α-hydroxyvaleric-acid, reference compound], for which the values for the MIC (in assay [1]; in the assay with E. coli strain N99/pRhtB; in assay [2]) were 25 µg/mL, 2000 µg/mL and 50 µg/mL, respectively.
With `N[C@@H](CCO)C(=O)O` [L-homoserine], the MIC in assay [1] was 125 µg/mL; with E. coli strain N99/pRhtB, 30000 µg/mL; in assay [2] it was 250 µg/mL.
For `N[C@@H](CO)C(=O)O` [L-serine], in that order: 5000 µg/mL, 10000 µg/mL and 5000 µg/mL.
Consider `C[C@@H](O)[C@H](N)C(=O)O` [L-threonine], for which the MIC is 30000 µg/mL in assay [1], 50000 µg/mL in the assay on E. coli strain N99/pRhtB and 30000 µg/mL in assay [2].
For the compound `CC(C)[C@H](N)C(=O)O` [L-valine], the MIC in assay [1] was determined as 0.5 µg/mL; with E. coli strain N99/pRhtB, 1 µg/mL; in assay [2] it was 0.5 µg/mL.
